Structures are written as SMILES. Where “and” joins values, the source holds several entries; their conditions need not be identical. Equal entries are not always repeated.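 Five compound concentrations were applied to cells in 96-well plates for 48 hours; endpoints were derived by simple linear interpolation of the resulting dose-response curve. GI50: concentration for 50% inhibition of growth.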 Calls of active or inactive are those of the source. Rule as the data show it: active = GI50 up to about 1.1 µM and inactive = higher. Residues, ends and D or L forms follow the SMILES beside them. *: point of attachment. X38 = O=C(c1ccc(-c2ccc(Cl)cc2Cl)o1)*

What all share (assay): growth of human tumour cells (NCI), 48 h
The test system of assay [1] is 786-0.
The subject of assay [2] is A498.
Assay [3] relates to CAKI-1.
Assay [4] relates to COLO 205.
Assay [5] concerns EKVX.
Assay [6] relates to HCC 2998.
For assay [7], the system named is HCT-116.
Assay [8] concerns KM12.
The test system of assay [9] is MCF7.
Assay [10] has as its system MDA-MB-231.
Assay [11] deals with NCI-H522.
The test system of assay [12] is NCI/ADR-RES.
The subject of assay [13] is SF-295.
In assay [14] the test system is SN12C.
The subject of assay [15] is SNB-75.
Assay [16] deals with T47D.
Assay [17] deals with UACC-257.
For assay [18], the system named is CCRF-CEM.
Assay [19] relates to UO-31.

Take `COc1cc2c(cc1OC)C1Cc3cc(OC)c(OC)cc3C(C2)N1C`: the GI50 in assay [1] is > 75 µM (inactive); in [2], > 75 µM (inactive); in assay [3], 85.1 µM (inactive); in assay [4], > 75 µM (inactive); in assay [5], > 100 µM (inactive); in assay [6], > 75 µM (inactive). In addition, the GI50 in [7] was 26.9 µM (inactive); in assay [8] it was 44.3 µM (inactive); in [9] it was > 75 µM (inactive); in assay [10] it was 0.0297 µM (active); in assay [11] it was > 100 µM (inactive); in [12], > 75 µM (inactive). The GI50 in assay [13] was 40.6 µM (inactive); in assay [14], > 100 µM (inactive) and 62.5 µM (inactive); in assay [15], > 100 µM (inactive); in assay [16] it was > 75 µM (inactive); in [17], > 100 µM (inactive).

In the case of `CCOC(CCCN1CCC2(CC1)C(=O)N(C)CN2c1ccccc1)(OCC)c1ccc(F)cc1`, the GI50 in assay [1] was 14.6 µM (inactive); in assay [3], 6.59 µM (inactive); in [18], 4.42 µM (inactive); in [4], 2.52 µM (inactive); in [5] it was 2.14 µM (inactive); in assay [6], 8.85 µM (inactive). In addition, the GI50 in [7] was 3.82 µM (inactive); in assay [8] it was 15.3 µM (inactive); in assay [9], 3.8 µM (inactive); in assay [10], 14.2 µM (inactive); in assay [11], 16.9 µM (inactive); in assay [12], 13.7 µM (inactive). Also, the GI50 in assay [13] is 12.7 µM (inactive); in assay [14], 10.3 µM (inactive); in assay [15], 19.4 µM (inactive); in assay [16], 4.95 µM (inactive); in assay [17], 6.14 µM (inactive); in assay [19], 7.01 µM (inactive).

For `COc1cc2c[n+](C)c3c4ccccc4ccc3c2cc1OC`, the GI50 in assay [1] is 8.65 µM (inactive); in [2], 37.4 µM (inactive); in [3], 55.3 µM (inactive); in assay [18] it was 6.5 µM (inactive); in assay [4] it was 0.991 µM (active); in assay [5] it was 2.54 µM (inactive). In addition, the GI50 in [6] is 4.81 µM (inactive); in assay [7] it was 3.95 µM (inactive); in assay [8], 0.452 µM (active); in assay [9] it was 3.66 µM (inactive); in [10] it was 5.05 µM (inactive); in assay [11] it was 0.302 µM (active). Moreover, the GI50 in [12] was > 100 µM (inactive); in assay [13], 16.9 µM (inactive); in assay [14], 1.32 µM (inactive); in [15], 5.89 µM (inactive); in [16] it was 2.06 µM (inactive); in [17], 3.73 µM (inactive). Also, in assay [19], the GI50 is > 75.5 µM (inactive).

As for `COc1ccc(-c2nc(-c3ccc(OC)cc3)n(-c3ccccc3)n2)cc1`, the GI50 in assay [1] is > 100 µM (inactive); in assay [2], 45.7 µM (inactive); in [3], > 100 µM (inactive); in assay [18] it was > 100 µM (inactive); in assay [4] it was 46.9 µM (inactive); in assay [5], 56.4 µM (inactive). Further, the GI50 in assay [7] is > 100 µM (inactive); in assay [8], 40.2 µM (inactive); in assay [9], > 100 µM (inactive); in assay [10], 50.2 µM (inactive); in assay [11], 11.8 µM (inactive); in [12], > 100 µM (inactive). Further, the GI50 in [13] was > 100 µM (inactive); in assay [14] it was > 100 µM (inactive); in assay [15], > 100 µM (inactive); in assay [16], 22.9 µM (inactive); in assay [17] it was > 100 µM (inactive); in assay [19], 21.6 µM (inactive).

As to `COc1ccc2c(CCN)c(C(=O)O)[nH]c2c1`, the GI50 in [1], in [2], in [3], in [4], in assay [5] and in [6] was > 100 µM (inactive) throughout. The GI50 in assay [7], in [8], in assay [9], in assay [10], in assay [11] and in assay [12] was > 100 µM (inactive) each time. Besides, the GI50 in [13], in assay [14], in [15], in assay [16], in assay [17] and in assay [19] was > 100 µM (inactive) each time.

On to `CCN(CC)/N=N/c1c(C(N)=O)n[nH]c1C`, for which the GI50 in assay [1] is 29.6 µM (inactive); in assay [2] it was > 100 µM (inactive); in [3] it was 17.9 µM (inactive); in assay [18], 18.3 µM (inactive); in assay [4], 52.5 µM (inactive); in [5] it was 26.9 µM (inactive). In addition, the GI50 in assay [6] was > 100 µM (inactive); in assay [7], > 100 µM (inactive); in [8] it was 50 µM (inactive); in assay [9] it was 30.5 µM (inactive); in assay [10], > 100 µM (inactive); in assay [11], 65.2 µM (inactive). Further, the GI50 in assay [12] is 48.5 µM (inactive); in assay [13], 38.1 µM (inactive); in [14] it was 40.6 µM (inactive); in assay [15], 23.2 µM (inactive); in assay [16] it was 60.3 µM (inactive); in assay [17] it was > 100 µM (inactive). Further, the GI50 in assay [19] is 20.7 µM (inactive).

Consider `COc1cc2oc3c(c(=O)c2c(O)c1/C=C/C(C)C)C(C=C(C)C)Oc1cc(O)ccc1-3` (stereo unspecified), for which the GI50 was 16.2 µM (inactive) in assay [1]; 24.7 µM (inactive) in assay [2]; 18 µM (inactive) in [3]; 5.53 µM (inactive) in [18]; 15.1 µM (inactive) in assay [4]; 16.1 µM (inactive) in assay [5]. Moreover, the GI50 was 12.1 µM (inactive) in [6]; 14.4 µM (inactive) in [7]; 17.2 µM (inactive) in assay [8]; 14.4 µM (inactive) in assay [9]; 18 µM (inactive) in assay [10]; 16.8 µM (inactive) in assay [11]. Further, the GI50 is 16.1 µM (inactive) in assay [12]; 17.1 µM (inactive) in [13]; 16.1 µM (inactive) in assay [14]; 15.3 µM (inactive) in assay [15]; 16.4 µM (inactive) in [16]; 18.2 µM (inactive) in assay [17]. For the same molecule, the GI50 in assay [19] was 12.1 µM (inactive).

Take `COC(=O)C(CC(C)C)NC(=O)C(Cc1ccccc1)NC(=O)C1CCCN1C(=O)C(CO)NC(=O)c1ccc(-c2ccc(Cl)cc2Cl)o1` (stereo unspecified) (X38-SPFL-OMe; configuration not given here): the GI50 in assay [1] was 25.1 µM (inactive); in [2], 24.5 µM (inactive); in assay [3], 28.3 µM (inactive); in assay [18] it was 36.8 µM (inactive); in assay [4] it was 16 µM (inactive); in assay [6], 13.2 µM (inactive). For the same molecule, the GI50 in [7] was 22.6 µM (inactive); in assay [8], 34 µM (inactive); in [9], 27.5 µM (inactive); in [10], 15.5 µM (inactive); in [11], 28.1 µM (inactive); in [12], 28.8 µM (inactive). Further, the GI50 in [13] was 19.5 µM (inactive); in [14] it was 32.1 µM (inactive); in assay [15], 25.7 µM (inactive); in assay [16] it was 28.9 µM (inactive); in [17], 20.2 µM (inactive); in [19], 23.9 µM (inactive).

The record behind these values is ChEMBL document CHEMBL1201862, “PubChem BioAssay data set” (2004).
